Results as given in patent publication US9796687B2, “S-substituted quinazolines and their therapeutic applications for the treatment of diseases mediated by PDE7” (Consejo Superior De Investigaciones Cientificas (CSIC), priority 2016, dated 2017).
Like-named read-outs stand apart in the source and are kept apart here. Each block holds one molecule with its values, some of them ahead of it.

Tests used:
PDE4D3 = PDE4D3 (Homo sapiens (Human), UniProt Q08499); assay: PDE4D3 inhibition; type: biochemical
PDE7A1 = PDE7A1 (Homo sapiens (Human), UniProt Q13946); assay: PDE7 inhibition, commercial phosphodiesterase activity kit ([3H]cAMP, SPA); type: biochemical
Method: Measurement of PDE7 inhibition was carried out using a commercial phosphodiesterase activity measurement kit.
Some of the compounds of the present invention (including those synthesised in Example 1) were evaluated. For this purpose, said compounds were incubated (in a range of concentrations from 0.1 nM to 100 μM) in the presence of 0.02 U/well of PDE7A1 and 0.05 μCi of [^3H] cAMP, for 20 minutes at 30° C. in the assay buffer supplied with the kit (total volume per well=100 μL). Once this time had elapsed, 50 μL of a 20 mg/mL suspension of SPA glass silicate microspheres were added and kept in agitation at ambient temperature for 60 minutes. After allowing the plate to rest for 20 minutes, the radioactivity was tested in a scintillation detector. All the assays included two points in the absence of PDE7A1 (blank/negative control) and two points with PDE7A1 in the absence of inhibitors (positive control).
The data were adjusted with a software program using non-linear adjustment.

PDE4B2 = PDE4B2 (Homo sapiens (Human), UniProt Q07343); assay: PDE4B2 inhibition; type: biochemical
[1] = Pharmacokinetic studies in mice: exposure in plasma and brain; details: for levels in plasma and brain 2 hours after administration (elimination): intraperitoneal or oral administration; for Kp / Tmax / Cmax: C57BL/6, mouse; for Kp: brain; for Tmax: plasma and brain; for Cmax: plasma
Method: (§1) After the blood extraction, the mice of each group were sacrificed by asphyxia with CO2, in order to obtain the brain. The brains were washed in a cold solution, dried in filter paper, weighed and placed in polypropylene tubes. The brains were homogenised with a buffered solution of phosphate pH 7.4, so that the total volume of the homogenate was three times the weight of the brain. The samples were stored at −70° C. until their analysis.
(§2) The extraction procedure for the plasma/brain homogenate or plasma calibration standard/doped brain samples was the same: 100 μL of the internal standard (imipramine, 500 ng/mL) were added, prepared in acetonitrile, to 25 μL of sample (plasma/brain) or doped calibration standard, and agitated with a vortex agitator for 5 minutes. As a blank (negative control), only acetonitrile was added. The samples were centrifugated for 10 min at 15000 rpm (20600 g) at 4° C. 100 μL of each supernatant were transferred to 96-well plates for its analysis by liquid chromatography-tandem mass spectrometry (LC-MS/MS). The calibration standards were prepared by doping 10 μL of analyte (compound to be studied, 1 mg/mL) in 190 μL of virgin plasma/brain homogenate (and subsequent serial dilutions).
(§3) The pharmacokinetic study was performed based on the time-concentration data obtained for the plasma and brain, by means of non-compartmental analysis using version 5.2 of WinNonlin®. The areas under the concentration-time curve (AUClast and AUCinf) were calculated using the linear trapezoidal rule.
(§4) The only difference lay in the administration of the compounds, which was via the oral route, in a suspension consisting of Tween 80 0.1% v/v and sodium carboxymethyl cellulose (NaCMC) 0.5% w/v in water. The compounds were administered at a dosage of 10 mg/kg, by gastric intubation using a 22-gauge oral feeding needle.

hERG channel = hERG channel (Homo sapiens (Human), UniProt Q12809); assay: Toxicity on the cardiac hERG channel, FluxOR thallium fluorescence assay in HEK293 cells; type: cell-based
From the text: The hERG potassium channel contributes in the final phase of the action potential, bringing the cell to its resting state. If a drug suppresses the activity of the channel, it can produce a prolongation of the […], known as “long QT syndrome”, resulting in a fatal ventricular arrhythmia.
To characterise the behaviour of the hERG potassium channel in the presence of the compounds of the present invention, use was made of an assay based on a fluorescent probe (FluxOR®, Life Technologies) with high affinity for thallium, an indicator of the activity of the potassium ion channel. When the potassium channels open in response to a stimulus, the influx of thallium from the external environment is detected by the probe. The fluorescent signal is therefore proportional to the number of open potassium channels in the cell. The FluxOR® is added in ester form without fluorescent emission capacity, thus preventing the emission of fluorescence outside the cell. When it enters the cell, the cytosol esterases activate the FluxOR®, so that it is capable of binding the thallium that passes into the cytoplasm through the hERG channel and of emitting fluorescence.
Black plates containing 96 wells treated with poly-D-lysine were seeded with HEK293 cells (deposit number ATCC CRL-1573) modified to stably express the hERG channel. […] After one hour of incubation of the fluorochrome with the cells at ambient temperature, the plates were washed with 50 μL of assay buffer. Subsequently, 20 μL of the compounds to be studied were added at a dilution of 1:200 (2 μL of compound/400 μL of assay buffer), in triplicate, on 12-point curves (1:2 dilutions of the compound in DMSO). […]. After 30 minutes of incubation, the plates were read in a FLIPR TETRA®, which added 5 μL of stimulus buffer (Tl2SO4+K2SO4). […]

in vivo = details: C57BL/6, mouse
Method: as §1, §2, §3, §4

in vitro = details: PAMPA, pH 7.4
Method: (§5) PDVF membrane filters were used for filtering the samples (diameter 30 mm, pore size 0.45 μm).
(§6) Ten reference compounds were selected whose passage across the blood-brain barrier is known and in the public domain, in order to validate the experiment. […] The solutions were filtered. Afterwards, 180 μL of a solution of PBS/ethanol (70/30) were added to each well of the acceptor plate. The donor plate was impregnated with 4 μL of a solution of porcine brain lipid dissolved in dodecane (20 mg mL-1).
(§7) After 5 minutes, 180 μL of solution of each compound were added to this plate.
(§8) The donor plate was then placed on the acceptor plate, forming a kind of sandwich, and left to incubate for 2 h and 30 min at 25° C. The compounds passed by passive transport from the donor plate, through the porcine brain lipid, to the acceptor plate. After 2 h and 30 min, the donor plate was carefully removed.
(§9) The concentration and absorbance, both of the commercial compounds and of the compounds of the present invention that were evaluated in the acceptor and donor plates, were determined using a UV absorbance reader. Each sample was analysed at different wavelengths (between 3 and 5 absorbance minima and maxima were chosen for each compound at wavelength valves of between 220 nm and 450 nm), in 3 wells and in a minimum of 2 independent experiments. […] The measurements were carried out on the acceptor plate.

[2] = Parallel artificial membrane permeability assay (PAMPA) for CNS / blood-brain barrier permeability; details: pH 7.4
Method: as §5, §6, §7, §8, §9

[3] = mice, intraperitoneal administration, 10 mg/kg
[4] = mice, oral administration, 10 mg/kg
[5] = mice, oral administration, 10 mg/kg, Tmax 0.5 h

Chain of PDE4B2 (Q07343 other isoform, or with tags, fused parts or gaps, species assumed): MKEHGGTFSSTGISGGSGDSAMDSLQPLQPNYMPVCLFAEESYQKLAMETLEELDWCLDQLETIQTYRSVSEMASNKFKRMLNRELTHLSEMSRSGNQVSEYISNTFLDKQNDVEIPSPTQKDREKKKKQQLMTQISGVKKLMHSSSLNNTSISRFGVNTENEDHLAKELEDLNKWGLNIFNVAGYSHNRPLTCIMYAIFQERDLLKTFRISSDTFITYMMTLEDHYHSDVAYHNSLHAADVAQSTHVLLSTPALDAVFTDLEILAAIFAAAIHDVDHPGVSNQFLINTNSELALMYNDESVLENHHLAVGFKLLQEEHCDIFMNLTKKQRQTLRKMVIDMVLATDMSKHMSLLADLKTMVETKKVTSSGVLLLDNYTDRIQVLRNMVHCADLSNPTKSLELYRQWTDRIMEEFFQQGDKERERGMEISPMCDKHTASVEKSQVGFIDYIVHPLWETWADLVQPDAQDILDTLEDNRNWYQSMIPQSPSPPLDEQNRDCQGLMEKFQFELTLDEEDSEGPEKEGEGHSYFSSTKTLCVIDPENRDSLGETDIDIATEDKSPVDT
Chain of hERG channel (Q12809 whole entry): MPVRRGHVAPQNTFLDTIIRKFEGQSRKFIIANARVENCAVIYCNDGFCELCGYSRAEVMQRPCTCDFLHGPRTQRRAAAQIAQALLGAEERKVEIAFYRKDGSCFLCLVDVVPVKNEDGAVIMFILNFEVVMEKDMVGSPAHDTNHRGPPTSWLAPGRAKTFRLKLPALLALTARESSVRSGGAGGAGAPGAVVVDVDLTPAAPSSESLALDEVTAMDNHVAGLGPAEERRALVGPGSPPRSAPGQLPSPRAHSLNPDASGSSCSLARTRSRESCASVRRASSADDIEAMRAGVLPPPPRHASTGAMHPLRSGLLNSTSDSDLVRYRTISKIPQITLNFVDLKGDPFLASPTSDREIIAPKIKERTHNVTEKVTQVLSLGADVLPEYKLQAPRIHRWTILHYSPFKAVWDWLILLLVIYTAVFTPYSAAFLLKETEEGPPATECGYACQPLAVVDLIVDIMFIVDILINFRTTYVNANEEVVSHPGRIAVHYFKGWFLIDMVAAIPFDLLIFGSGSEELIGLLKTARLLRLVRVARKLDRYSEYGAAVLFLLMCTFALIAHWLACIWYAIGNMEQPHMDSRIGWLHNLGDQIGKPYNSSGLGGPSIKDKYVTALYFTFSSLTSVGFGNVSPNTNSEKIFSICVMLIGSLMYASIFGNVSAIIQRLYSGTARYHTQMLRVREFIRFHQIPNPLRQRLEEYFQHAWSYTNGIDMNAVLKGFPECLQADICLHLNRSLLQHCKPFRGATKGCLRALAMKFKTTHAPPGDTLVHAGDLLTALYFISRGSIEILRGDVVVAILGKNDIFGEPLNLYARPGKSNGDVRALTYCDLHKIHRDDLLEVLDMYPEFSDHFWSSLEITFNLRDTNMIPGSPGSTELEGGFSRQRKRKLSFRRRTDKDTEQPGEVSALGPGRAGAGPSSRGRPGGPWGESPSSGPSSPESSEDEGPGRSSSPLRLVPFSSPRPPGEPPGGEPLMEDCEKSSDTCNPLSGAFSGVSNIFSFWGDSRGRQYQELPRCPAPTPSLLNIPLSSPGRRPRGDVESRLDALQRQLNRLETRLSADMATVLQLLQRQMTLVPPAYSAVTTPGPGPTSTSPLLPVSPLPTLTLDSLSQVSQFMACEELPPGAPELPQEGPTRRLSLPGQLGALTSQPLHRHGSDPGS
Chain of PDE4D3 (Q08499 other isoform, or with tags, fused parts or gaps): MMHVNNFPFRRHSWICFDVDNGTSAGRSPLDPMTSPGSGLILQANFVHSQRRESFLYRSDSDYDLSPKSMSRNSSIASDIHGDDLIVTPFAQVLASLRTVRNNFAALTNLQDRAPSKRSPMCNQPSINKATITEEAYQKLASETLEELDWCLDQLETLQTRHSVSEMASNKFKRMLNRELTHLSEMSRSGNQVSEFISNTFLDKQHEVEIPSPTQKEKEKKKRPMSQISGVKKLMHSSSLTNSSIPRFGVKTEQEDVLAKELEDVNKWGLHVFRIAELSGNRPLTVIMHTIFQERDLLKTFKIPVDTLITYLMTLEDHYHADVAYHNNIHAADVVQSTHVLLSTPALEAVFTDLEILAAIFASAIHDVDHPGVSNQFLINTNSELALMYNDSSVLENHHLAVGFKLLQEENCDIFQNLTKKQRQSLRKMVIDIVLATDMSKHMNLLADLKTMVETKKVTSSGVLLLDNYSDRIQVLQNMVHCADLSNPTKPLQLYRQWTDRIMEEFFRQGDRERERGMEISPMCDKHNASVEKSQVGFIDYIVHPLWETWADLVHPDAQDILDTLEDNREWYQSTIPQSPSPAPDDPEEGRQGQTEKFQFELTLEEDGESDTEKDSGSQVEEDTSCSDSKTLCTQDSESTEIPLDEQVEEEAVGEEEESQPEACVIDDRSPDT
Chain of PDE7A1 (Q13946 whole entry, species assumed): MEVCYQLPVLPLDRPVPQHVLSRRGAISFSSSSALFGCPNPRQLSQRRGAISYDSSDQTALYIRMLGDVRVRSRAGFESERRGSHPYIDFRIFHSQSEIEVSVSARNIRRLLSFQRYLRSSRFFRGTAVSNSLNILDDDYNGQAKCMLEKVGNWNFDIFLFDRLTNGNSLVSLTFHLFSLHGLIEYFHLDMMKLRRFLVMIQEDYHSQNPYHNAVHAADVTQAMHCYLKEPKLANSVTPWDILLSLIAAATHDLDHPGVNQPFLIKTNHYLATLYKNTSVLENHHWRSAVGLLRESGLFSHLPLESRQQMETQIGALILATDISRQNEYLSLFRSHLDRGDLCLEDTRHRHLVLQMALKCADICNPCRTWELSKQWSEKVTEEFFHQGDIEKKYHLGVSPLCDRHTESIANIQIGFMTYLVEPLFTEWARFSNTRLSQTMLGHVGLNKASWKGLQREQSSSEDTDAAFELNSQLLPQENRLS

SMILES: O=c1c2ccccc2nc(SCC2CCCCC2)n1-c1ccccc1 [Compound 1, 2-Cyclohexylmethylthio-3-phenyl-4-oxo-3,4-dihydroquinazoline]
inhibition at 10 µM (PDE4D3): 49%
IC50 (PDE7A1; read-out: PDE7A IC50): 200 nM
inhibition at 10 µM (PDE4B2): 18%

SMILES: O=c1c2ccccc2nc(SCC2CCCCC2)n1-c1ccccc1Br [Compound 2, 3-(2-Bromophenyl)-2-cyclohexylmethylthio-4-oxo-3,4-dihydroquinazoline]
IC50 (PDE7A1; read-out: PDE7A IC50): 2110 nM

SMILES: CC(C)(C)CSc1nc2ccccc2c(=O)n1-c1ccccc1 [Compound 5, 3-Phenyl-2-neopentylthio-4-oxo-3,4-dihydroquinazoline]
inhibition at 10 µM (PDE4D3): 37%
IC50 (PDE7A1; Table 3, read-out: PDE inhibitory activity PDE7A CI50): 100 nM
IC50 (PDE7A1; read-out: PDE7A IC50): 100 nM
Cmax/PDE7 IC50 ratio, brain [1, 3]: 56.5
Cmax/PDE7 IC50 ratio, plasma [1, 3]: 23.1
Brain Cmax ([1]; mice, intraperitoneal administration, 10 mg/kg, Tmax 0.25 h): 5650 nM
levels in plasma and brain 2 hours after administration (elimination) ([1]; mice, 10 mg/kg): still considerable levels
Cmax/PDE7 IC50 ratio, brain [1, 4]: 16.4
Cmax/PDE7 IC50 ratio, plasma [1, 4]: 13.8
Brain Cmax [1, 5]: 1640 nM
IC50 (hERG channel): > 30000 nM
cardiotoxic potential (hERG channel; deduced from hERG data): did not have any cardiotoxic potential
Kp (in vivo): > 1
Cmax (in vivo; ip, 10 mg/kg): 2310 nM
Kp (in vivo; ip, 10 mg/kg): 2.45
Tmax (in vivo; ip, 10 mg/kg): 15 min
Cmax (in vivo; po, 10 mg/kg): 1380 nM
Kp (in vivo; po, 10 mg/kg): 1.19
Tmax (in vivo; po, 10 mg/kg): 30 min
inhibition at 10 µM (PDE4B2): 29%

SMILES: Cc1cccc2c(=O)n(-c3c(F)cccc3F)c(SCC(C)(C)C)nc12 [Compound 6, 3-(2,6-Difluorophenyl)-8-methyl-2-neopentylthio-4-oxo-3,4-dihydroquinazoline]
IC50 (PDE7A1; read-out: PDE7A IC50): 8670 nM

SMILES: CC(C)(C)CSc1nc2c(Cl)cccc2c(=O)n1-c1ccccc1 [Compound 11, 8-Chloro-3-phenyl-2-neopentylthio-4-oxo-3,4-dihydroquinazoline]
IC50 (PDE7A1; read-out: PDE7A IC50): 1200 nM

SMILES: Cc1ccccc1-n1c(SCC(C)(C)C)nc2ccccc2c1=O [Compound 13, 3-(2-Methylphenyl)-2-neopentylthio-4-oxo-3,4-dihydroquinazoline]
IC50 (PDE7A1; read-out: PDE7A IC50): 1850 nM
Papp at 2.5 h (in vitro): 3.9 ± 0.7 ×10⁻⁶ cm/s

SMILES: O=c1c2ccccc2nc(SCC2CC2)n1-c1ccccc1Br [Compound 14, 3-(2-Bromophenyl)-2-cyclopropylmethylthio-4-oxo-3,4-dihydroquinazoline]
IC50 (PDE7A1; read-out: PDE7A IC50): 9440 nM
Papp at 2.5 h (in vitro): 1.9 ± 0.3 ×10⁻⁶ cm/s

SMILES: Cc1cccc2c(=O)n(-c3c(F)cccc3F)c(SCC3CC3)nc12 [Compound 15, 2-Cyclopropylmethylthio-3-(2,6-difluorophenyl)-8-methyl-4-oxo-3,4-dihydroquinazoline]
IC50 (PDE7A1; read-out: PDE7A IC50): 4560 nM
Papp at 2.5 h (in vitro): 1.3 ± 0.9 ×10⁻⁶ cm/s

SMILES: CCSc1nc2ccccc2c(=O)n1-c1ccccc1 [Compound 16, 2-Ethylthio-3-phenyl-4-oxo-3,4-dihydroquinazoline]
IC50 (PDE7A1; read-out: PDE7A IC50): 6900 nM
Papp at 2.5 h (in vitro): 7.9 ± 1.2 ×10⁻⁶ cm/s

SMILES: CCSc1nc2ccccc2c(=O)n1-c1c(F)cccc1F [Compound 17, 2-Ethylthio-3-(2,6-difluorophenyl)-4-oxo-3,4-dihydroquinazoline]
IC50 (PDE7A1; read-out: PDE7A IC50): 6990 nM
Papp at 2.5 h (in vitro): 4.8 ± 0.6 ×10⁻⁶ cm/s

SMILES: CCSc1nc2c(Cl)cccc2c(=O)n1-c1c(F)cccc1F [Compound 18, 8-Chloro-2-ethylthio-3-(2,6-difluorophenyl)-4-oxo-3,4-dihydroquinazoline]
IC50 (PDE7A1; read-out: PDE7A IC50): 2440 nM

inhibition at 10 µM (PDE4D3): 38%
IC50 (PDE7A1; read-out: PDE7A IC50): 600 nM
inhibition at 10 µM (PDE4B2): 28%
SMILES: O=c1c2ccccc2nc(SCc2ccccc2)n1-c1ccccc1 [Compound 21, 2-Benzylthio-3-phenyl-4-oxo-3,4-dihydroquinazoline]

IC50 (PDE7A1; read-out: PDE7A IC50): 800 nM
Papp at 2.5 h (in vitro): 12.4 ± 2.2 ×10⁻⁶ cm/s
SMILES: O=c1c2ccccc2nc(SCc2ccccn2)n1-c1ccccc1 [Compound 23, 3-Phenyl-2-(2-pyridylmethylthio)-4-oxo-3,4-dihydroquinazoline]

IC50 (PDE7A1; read-out: PDE7A IC50): 700 nM
Papp at 2.5 h (in vitro): 18.6 ± 1.7 ×10⁻⁶ cm/s
SMILES: O=c1c2ccccc2nc(SCc2cccnc2)n1-c1ccccc1 [Compound 24, 3-Phenyl-2-(3-pyridylmethylthio)-4-oxo-3,4-dihydroquinazoline]

IC50 (PDE7A1; read-out: PDE7A IC50): 540 nM
Papp at 2.5 h (in vitro): 12.1 ± 3.9 ×10⁻⁶ cm/s
SMILES: O=c1[nH]c(SCc2cccnc2)nc2c(Cl)cccc12 [Compound 25, 8-Chloro-2-(3-pyridylmethylthio)-4-oxo-3,4-dihydroquinazoline]

SMILES: Cc1ccccc1-n1c(SCc2cccnc2)nc2ccccc2c1=O [Compound 26, 3-(2-Methylphenyl)-2-(3-pyridylmethylthio)-4-oxo-3,4-dihydroquinazoline]
IC50 (PDE7A1; read-out: PDE7A IC50): 120 nM
Papp at 2.5 h (in vitro): 20.1 ± 0.1 ×10⁻⁶ cm/s

IC50 (PDE7A1; read-out: PDE7A IC50): 2600 nM
Papp at 2.5 h (in vitro): 15.9 ± 1.3 ×10⁻⁶ cm/s
SMILES: O=c1c2ccccc2nc(SCc2ccncc2)n1-c1ccccc1 [Compound 27, 3-Phenyl-2-(4-pyridylmethylthio)-4-oxo-3,4-dihydroquinazoline]

IC50 (PDE7A1; read-out: PDE7A IC50): 90 nM
SMILES: O=c1c2ccccc2nc(SCc2ccc3ccccc3c2)n1-c1ccccc1 [Compound 28, 3-Phenyl-2-(2-naphthylmethylthio)-4-oxo-3,4-dihydroquinazoline]

SMILES: CN1C(C(=O)Nc2ccccn2)=C(O)c2ccccc2S1(=O)=O [Piroxicam, piroxicam]
Papp at 2.5 h [2]: 0.2 ± 0.1 ×10⁻⁶ cm/s

Kp ([1]; ip, 10 mg/kg): 0.51
Kp ([1]; other: intraperitoneal and oral, 10 mg/kg): < 1
Kp ([1]; po, 10 mg/kg): 0.43
Tmax ([1]; ip, 10 mg/kg): 15 min
Tmax ([1]; po, 10 mg/kg): 30 min
Cmax ([1]; ip, 10 mg/kg): 6790 nM
Cmax ([1]; po, 10 mg/kg): 860 nM
Cmax/PDE7 IC50 ratio, brain [1, 3]: 3.33
Cmax/PDE7 IC50 ratio, plasma [1, 3]: 6.53
levels in plasma and brain 2 hours after administration (elimination) ([1]; mice, 10 mg/kg): almost eliminated
Cmax/PDE7 IC50 ratio, brain [1, 4]: 0.36
Cmax/PDE7 IC50 ratio, plasma [1, 4]: 0.83
Brain Cmax [1, 5]: 370 nM
Brain Cmax ([1]; mouse, in vivo): 3460 nM
SMILES: S=c1[nH]c2ccccc2c(=S)n1-c1ccccc1 [TC3.6, 3-Phenyl-2,4-dithioxo-1,2,3,4-tetrahydroquinazoline]
IC50 (hERG channel; stimulated the opening of the potassium channel, HEK293 hERG, FluxOR): 5190 nM
